The results in this text go back to patent US20240317735A1, “HYDROISOQUINOLINE OR HYDRONAPHTHYRIDINE COMPOUNDS FOR THE TREATMENT OF AUTOIMMUNE DISEASE” (Hoffmann-La Roche Inc., priority 2020, published 2024).

Series [1] deals with T1, human TLR8 (Homo sapiens, UniProt Q9NR97).
T1 construct: host or cells: HEK293 (HEK-Blue hTLR8)
T1 sequence (Q9NR97 27-1041): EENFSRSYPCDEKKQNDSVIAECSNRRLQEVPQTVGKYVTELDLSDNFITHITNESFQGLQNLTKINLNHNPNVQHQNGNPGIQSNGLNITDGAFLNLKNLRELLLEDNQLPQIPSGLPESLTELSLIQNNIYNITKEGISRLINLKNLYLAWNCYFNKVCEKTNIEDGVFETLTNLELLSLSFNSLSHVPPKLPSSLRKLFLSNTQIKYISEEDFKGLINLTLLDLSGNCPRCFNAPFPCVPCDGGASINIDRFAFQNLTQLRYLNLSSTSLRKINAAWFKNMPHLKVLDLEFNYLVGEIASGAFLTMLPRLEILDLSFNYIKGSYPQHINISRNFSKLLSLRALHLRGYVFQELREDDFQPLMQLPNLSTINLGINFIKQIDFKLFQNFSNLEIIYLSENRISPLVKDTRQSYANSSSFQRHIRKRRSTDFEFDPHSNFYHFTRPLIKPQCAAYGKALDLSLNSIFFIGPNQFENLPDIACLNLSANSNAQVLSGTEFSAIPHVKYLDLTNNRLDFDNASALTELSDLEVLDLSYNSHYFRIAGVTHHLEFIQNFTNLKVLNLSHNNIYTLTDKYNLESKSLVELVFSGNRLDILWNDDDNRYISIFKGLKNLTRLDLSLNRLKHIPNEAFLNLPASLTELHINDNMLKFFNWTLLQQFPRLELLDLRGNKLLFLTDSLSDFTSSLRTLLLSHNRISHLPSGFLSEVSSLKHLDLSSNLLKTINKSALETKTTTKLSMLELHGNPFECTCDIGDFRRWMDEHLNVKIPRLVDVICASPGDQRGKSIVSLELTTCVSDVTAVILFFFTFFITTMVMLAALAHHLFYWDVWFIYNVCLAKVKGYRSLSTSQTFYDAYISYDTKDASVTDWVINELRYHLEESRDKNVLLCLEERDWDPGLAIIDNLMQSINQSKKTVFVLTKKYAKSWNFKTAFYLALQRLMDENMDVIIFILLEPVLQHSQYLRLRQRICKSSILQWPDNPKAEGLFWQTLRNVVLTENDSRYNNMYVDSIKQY
Put plainly: HEK293-Blue-hTLR-8 cells assay (SEAP reporter, R848 stimulation). In kind it is cell-based. To be noted: HEK293-Blue-hTLR8 cells, R848, 20 hrs; read-out: HEK/hTLR8 IC50. The gist of the method:
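HEK293-Blue hTLR8 cells with NF-κB/AP-1-driven SEAP reporter incubated 20 h at 37 °C with serially diluted compound (1% DMSO) and R848 stimulus (60 μM stock). Supernatant SEAP measured with QUANTI-Blue (2 h, 37 °C) by absorbance at 620–655 nm; antagonism read as reduced reporter signal.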

Series [2] is described as follows: Human microsome stability assay. The series is classed as in vitro ADME. To be noted: 1 μM test compound, 0.5 mg/mL liver microsomal protein, 37° C., pH 7.4. The gist of the method: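 1 μM compound with 0.5 mg/mL human liver microsomes in 100 mM potassium phosphate pH 7.4, 37° C, started with NADPH-regenerating system after 10 min preincubation. Sampled at 0, 3, 6, 9, 15, 30 min, quenched in acetonitrile; parent remaining by LC-MS/MS, with no-NADPH controls.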
In general terms: Liver microsomes are a subcellular fraction often used to study metabolism.

pIC50: −log10 of the molar value.

With `C[C@H]1CN(c2ccnc3c2cnn3C)Cc2ccc(OC[C@@H]3CNCCN3)cc21` [Example 19, (4R)-4-methyl-2-(1-methylpyrazolo[3,4-b]pyridin-4-yl)-6-[[(2S)-piperazin-2-yl]methoxy]-3,4-dihydro-1H-isoquinoline], the pIC50 in series [1] is 8.40. In addition, the “Clearance of Human microsome” value in series [2] was 7.7 mL/min/kg.

Take `C[C@H]1CN(c2ccnc3c2cnn3C)Cc2ccc(OCCN3CCNCC3)cc21` [Example 40, (4R)-4-methyl-2-(1-methylpyrazolo[3,4-b]pyridin-4-yl)-6-(2-piperazin-1-ylethoxy)-3,4-dihydro-1H-isoquinoline]: in series [1], the pIC50 is 8.15. Besides, the “Clearance of Human microsome” value in series [2] is 6.2 mL/min/kg.

For the compound `C[C@H]1CN(c2ccnc3c2cnn3C)Cc2ccc(N3CCC(O)(CN(C)C)CC3)cc21` [Example 13, 4-[(dimethylamino)methyl]-1-[(4R)-4-methyl-2-(1-methylpyrazolo[3,4-b]pyridin-4-yl)-3,4-dihydro-1H-isoquinolin-6-yl]piperidin-4-ol], the pIC50 in series [1] is 8.70. In addition, the “Clearance of Human microsome” value in series [2] came out at 6.2 mL/min/kg.

For the compound `C[C@H]1CN(c2ccnc3c2cnn3C)Cc2ccc(N3CC4(CNC4)CC3=O)cc21` [Example 34, 6-[(4R)-4-methyl-2-(1-methylpyrazolo[3,4-b]pyridin-4-yl)-3,4-dihydro-1H-isoquinolin-6-yl]-2,6-diazaspiro[3.4]octan-7-one], the pIC50 in series [1] was 7.59. Besides, the “Clearance of Human microsome” value in series [2] is on record as 10.1 mL/min/kg.

With `CO[C@@H]1CN(c2ccc3c(n2)[C@@H](C)CN(c2cc(C)nc4c2cnn4C)C3)C[C@H]1N` [Example 63, (3R,4R)-4-methoxy-1-[(8S)-6-(1,6-dimethylpyrazolo[3,4-b]pyridin-4-yl)-8-methyl-7,8-dihydro-5H-1,6-naphthyridin-2-yl]pyrrolidin-3-amine], the pIC50 in series [1] was 7.80. Moreover, the “Clearance of Human microsome” value in series [2] turned out to be 6.2 mL/min/kg.

Consider `Cn1ncc2c(N3CCc4cc(N5CCNCC5)ccc4C3)ccnc21` [Example 3, 2-(1-methylpyrazolo[3,4-b]pyridin-4-yl)-6-piperazin-1-yl-3,4-dihydro-1H-isoquinoline], for which the pIC50 in series [1] was 7.25. Further, in series [2], the “Clearance of Human microsome” value worked out at 9.5 mL/min/kg.

Consider `C[C@H]1CN(c2ccnc3c2cnn3C)Cc2ccc(N3CC4(CCNCC4)OC3=O)cc21` [Example 26, 3-[(4R)-4-methyl-2-(1-methylpyrazolo[3,4-b]pyridin-4-yl)-3,4-dihydro-1H-isoquinolin-6-yl]-1-oxa-3,8-diazaspiro[4.5]decan-2-one], for which, in series [1], the pIC50 is 8.00. Moreover, the “Clearance of Human microsome” value in series [2] came out at 6.2 mL/min/kg.

Regarding `Cc1cc(N2Cc3ccc(N4CCNCC4)cc3[C@@H](C)C2)c2cnn(C)c2n1` [Example 2, (4R)-2-(1,6-dimethylpyrazolo[3,4-b]pyridin-4-yl)-4-methyl-6-piperazin-1-yl-3,4-dihydro-1H-isoquinoline], in series [1], the pIC50 is 9.00. The “Clearance of Human microsome” value in series [2] is 9.0 mL/min/kg.

On to `Cc1cc(N2Cc3ccc(N4CCOC5(CNC5)C4)nc3[C@@H](C)C2)c2cnn(C)c2n1` [Example 70, 8-[(8S)-6-(1,6-dimethylpyrazolo[3,4-b]pyridin-4-yl)-8-methyl-7,8-dihydro-5H-1,6-naphthyridin-2-yl]-5-oxa-2,8-diazaspiro[3.5]nonane], for which, in series [1], the pIC50 was 7.55. In addition, in series [2], the “Clearance of Human microsome” value came out at 8.1 mL/min/kg.

Regarding `Cc1cc(N2Cc3ccc(N4CCNCC4)nc3[C@H](C)C2)c2cnn(C)c2n1` [Example 72, (8R)-6-(1,6-dimethylpyrazolo[3,4-b]pyridin-4-yl)-8-methyl-2-piperazin-1-yl-7,8-dihydro-5H-1,6-naphthyridine], the pIC50 in series [1] was 8.70. Moreover, the “Clearance of Human microsome” value in series [2] is on record as 7.3 mL/min/kg.

Take `C[C@H]1CN(c2ccnc3c2cnn3C)Cc2ccc(N3CCN(c4cc5c(cn4)CCNC5)CC3)cc21` [Example 9, 7-[4-[(4R)-4-methyl-2-(1-methylpyrazolo[3,4-b]pyridin-4-yl)-3,4-dihydro-1H-isoquinolin-6-yl]piperazin-1-yl]-1,2,3,4-tetrahydro-2,6-naphthyridine]: the pIC50 in series [1] is 7.96. The “Clearance of Human microsome” value in series [2] turned out to be 9.9 mL/min/kg.

`C[C@H]1CN(c2ccnc3c2cnn3C)Cc2ccc(N3C[C@@H]4CCNCC4C3=O)cc21` (relative stereo) [Example 55, cis-2-[(4R)-4-methyl-2-(1-methylpyrazolo[3,4-b]pyridin-4-yl)-3,4-dihydro-1H-isoquinolin-6-yl]-3a,4,5,6,7,7a-hexahydro-1H-pyrrolo[3,4-c]pyridin-3-one]: the pIC50 in series [1] was 8.22. Besides, the “Clearance of Human microsome” value in series [2] was found to be 8.2 mL/min/kg.

Take `C[C@H]1CN(c2ccnc3c2cnn3C)Cc2ccc(OC[C@H]3CNCCN3)cc21` [Example 18, (4R)-4-methyl-2-(1-methylpyrazolo[3,4-b]pyridin-4-yl)-6-[[(2R)-piperazin-2-yl]methoxy]-3,4-dihydro-1H-isoquinoline]: the pIC50 in series [1] is 8.40. Further, the “Clearance of Human microsome” value in series [2] stood at 10.5 mL/min/kg.

On to `C[C@H]1CN(c2ccnc3c2cnn3C)Cc2ccc(N3CCN(CCN(C)C)CC3)cc21` [Example 38, N,N-dimethyl-2-[4-[(4R)-4-methyl-2-(1-methylpyrazolo[3,4-b]pyridin-4-yl)-3,4-dihydro-1H-isoquinolin-6-yl]piperazin-1-yl]ethanamine], for which the pIC50 in series [1] was more than 9.52. Also, the “Clearance of Human microsome” value in series [2] was determined as 6.2 mL/min/kg.
